Reference: the NIST ThermoML archive (doi:10.1021/je034162x)

Conditions: 101.33 kPa, Liquid, Hot wire method

C1CCCCCC1 [cycloheptane]
Conditions	thermal conductivity [W/m/K]	thermal diffusivity [m2/s]
262.18 K	0.1272	–
262.37 K	0.1271	–
262.5 K	0.1271	–
262.77 K	–	8.84e-08
263.24 K	–	8.9e-08
263.56 K	–	8.91e-08
280.17 K	0.1228	–
280.35 K	0.1227	–
280.48 K	0.1227	–
280.76 K	–	8.39e-08
281.19 K	–	8.4e-08
281.5 K	–	8.4e-08
297.01 K	0.1187	–
297.2 K	0.1185	–
297.33 K	0.1185	–
297.59 K	–	7.97e-08
298.03 K	–	7.98e-08
298.33 K	–	7.98e-08
320.05 K	0.1132	–
320.23 K	0.1131	–
320.36 K	0.113	–
320.62 K	–	7.47e-08
321.05 K	–	7.46e-08
321.34 K	–	7.46e-08

[2H]C1([2H])C([2H])([2H])C([2H])([2H])C([2H])([2H])C([2H])([2H])C1([2H])[2H] [cyclohexane-d12]
Conditions	thermal conductivity [W/m/K]	thermal diffusivity [m2/s]
280.46 K	0.1163	–
280.63 K	0.1162	–
280.74 K	0.1161	–
280.97 K	–	6.83e-08
281.35 K	–	6.85e-08
281.6 K	–	6.81e-08
291.18 K	0.1133	–
291.34 K	0.1133	–
291.45 K	0.1132	–
291.65 K	–	6.5e-08
292.04 K	–	6.54e-08
292.29 K	–	6.53e-08
303.67 K	0.11	–
303.83 K	0.1099	–
303.92 K	0.1098	–
304.14 K	–	6.23e-08
304.49 K	–	6.22e-08
304.72 K	–	6.19e-08
315.91 K	0.1067	–
316.06 K	0.1066	–
316.17 K	0.1066	–
316.35 K	–	5.91e-08
316.71 K	–	5.93e-08
316.96 K	–	5.96e-08
326.3 K	0.1042	–
326.44 K	0.104	–
326.54 K	0.104	–
326.75 K	–	5.75e-08
327.08 K	–	5.73e-08
327.31 K	–	5.72e-08

C1CCCCC1 [cyclohexane]
Conditions	thermal conductivity [W/m/K]	thermal diffusivity [m2/s]
280.83 K	0.1232	–
281 K	0.1231	–
281.15 K	0.123	–
281.38 K	–	8.75e-08
281.78 K	–	8.73e-08
282.12 K	–	8.75e-08
295.53 K	0.119	–
295.7 K	0.1189	–
295.83 K	0.1187	–
296.05 K	–	8.25e-08
296.45 K	–	8.28e-08
296.76 K	–	8.24e-08
300.84 K	0.1175	–
301 K	0.1173	–
301.14 K	0.1172	–
301.35 K	–	8.09e-08
301.73 K	–	8.06e-08
302.06 K	–	8.09e-08
318.66 K	0.1124	–
318.82 K	0.1123	–
318.95 K	0.1121	–
319.16 K	–	7.6e-08
319.54 K	–	7.59e-08
319.84 K	–	7.56e-08

C1=CCCCC1 [cyclohexene]
Conditions	thermal conductivity [W/m/K]	thermal diffusivity [m2/s]
257.22 K	0.1406	–
257.42 K	0.1404	–
257.57 K	0.1404	–
257.97 K	–	1.01e-07
258.49 K	–	1.01e-07
258.86 K	–	1.01e-07
275.37 K	0.1348	–
275.58 K	0.1346	–
275.73 K	0.1346	–
276.12 K	–	9.55e-08
276.65 K	–	9.55e-08
277.03 K	–	9.56e-08
295.57 K	0.1284	–
295.77 K	0.1282	–
295.92 K	0.1281	–
296.28 K	0.1278	–
296.29 K	–	8.83e-08
296.49 K	0.1277	–
296.65 K	0.1276	–
296.77 K	–	8.78e-08
297.03 K	–	8.88e-08
297.15 K	–	8.79e-08
297.55 K	–	8.87e-08
297.94 K	–	8.88e-08
311.67 K	0.1231	–
311.89 K	0.1229	–
312.04 K	0.1228	–
312.42 K	–	8.46e-08
312.96 K	–	8.46e-08
313.32 K	–	8.42e-08
327.85 K	0.118	–
328.07 K	0.1178	–
328.22 K	0.1177	–
328.59 K	–	7.97e-08
329.13 K	–	7.97e-08
329.49 K	–	7.94e-08

C1CCCCCCC1 [cyclooctane]
Conditions	thermal conductivity [W/m/K]	thermal diffusivity [m2/s]
288.7 K	0.1205	–
288.96 K	0.1203	–
289.17 K	0.1202	–
289.34 K	–	7.48e-08
289.97 K	–	7.48e-08
290.48 K	–	7.48e-08
295.85 K	0.1191	–
295.88 K	0.1191	–
296.09 K	0.1189	–
296.21 K	0.1188	–
296.43 K	–	7.39e-08
296.51 K	–	7.35e-08
297.02 K	–	7.36e-08
297.3 K	–	7.36e-08
311.67 K	0.1156	–
311.88 K	0.1154	–
312.1 K	0.1154	–
312.37 K	–	7.05e-08
312.87 K	–	7.03e-08
313.4 K	–	7.04e-08
328.99 K	0.1119	–
329.22 K	0.1118	–
329.43 K	0.1117	–
329.7 K	–	6.75e-08
330.22 K	–	6.75e-08
330.71 K	–	6.72e-08

C1CCCC1 [cyclopentane]
Conditions	thermal conductivity [W/m/K]	thermal diffusivity [m2/s]
257.08 K	0.1428	–
257.27 K	0.1426	–
257.4 K	0.1425	–
257.78 K	–	1.11e-07
258.26 K	–	1.11e-07
258.6 K	–	1.11e-07
276.13 K	0.1349	–
276.33 K	0.1348	–
276.47 K	0.1348	–
276.83 K	–	1.03e-07
277.31 K	–	1.03e-07
277.68 K	–	1.03e-07
293.63 K	0.1281	–
293.83 K	0.1279	–
293.97 K	0.1278	–
294.33 K	–	9.64e-08
294.82 K	–	9.62e-08
295.17 K	–	9.61e-08
300.67 K	0.1254	–
300.87 K	0.1253	–
301.01 K	0.1251	–
301.34 K	–	9.3e-08
301.83 K	–	9.29e-08
302.17 K	–	9.28e-08
316.21 K	0.1195	–
316.4 K	0.1193	–
316.54 K	0.1192	–
316.87 K	–	8.68e-08
317.34 K	–	8.66e-08
317.67 K	–	8.65e-08
